Data published in ChEMBL document CHEMBL5500371, “Arginine and tryptophan-rich dendritic antimicrobial peptides that disrupt membranes for bacterial infection in vivo” (Eur J Med Chem, 2024).
Active and inactive are the calls of the source. No cut-off for these calls is given here. Where a SMILES comes first, the peptide text is derived from it. Side-chain parts run from the residue outwards.

Assays:
Erythrocyte = assay: Hemolytic activity in mouse erythrocytes assessed as 10% hemolysis incubated for 1 hr by absorbance based analysis; type: toxicity, cell-based
[1] = Therapeutic index, ratio of MHC10 for hemolytic activity in mouse erythrocytes preincubated with 10% mouse serum for 1 hr to MIC for Escherichia coli ATCC 25922 preincubated with 10% mouse serum for 1 hr; type: toxicity, cell-based; conditions: mouse erythrocytes, read-out: TI
[2] = Therapeutic index, ratio of MHC10 for hemolytic activity in mouse erythrocytes preincubated with 10% mouse serum for 6 hrs to MIC for Escherichia coli ATCC 25922 preincubated with 10% mouse serum for 6 hrs; type: toxicity, cell-based; conditions: mouse erythrocytes, read-out: TI
[3] = Therapeutic index, ratio of MHC10 for hemolytic activity in mouse erythrocytes preincubated with 10% mouse serum for 6 hrs to MIC for Staphylococcus aureus ATCC 25923 preincubated with 10% mouse serum for 6 hrs; type: toxicity, cell-based; conditions: mouse erythrocytes, read-out: TI
[4] = Stability in mouse serum assessed as half life at 10 mM measured upto 24 hrs by RP-HPLC analysis; type: ADME, cell-free
Staphylococcus aureus [5] = assay: Bactericidal activity against Staphylococcus aureus ATCC 25923 assessed as elimination of bacteria at 2 times MIC measured after 1.5 hrs by time kill assay; type: functional
Escherichia coli [6] = assay: Bactericidal activity against Escherichia coli ATCC 25922 assessed as elimination of bacteria at 2 times MIC measured within 2 hrs by time kill assay; type: functional, organism-based
Escherichia coli [7] = assay: Antibiofilm activity against Escherichia coli ATCC 25922 assessed as inhibition of biofilm formation at 0.5 to 4 times MIC measured after 24 hrs by crystal violet staining based analysis; type: functional, organism-based
Staphylococcus aureus [8] = assay: Antibiofilm activity against Staphylococcus aureus ATCC 25923 assessed as inhibition of biofilm formation at 0.5 to 4 times MIC measured after 24 hrs by crystal violet staining based analysis; type: functional, organism-based
Lipopolysaccharide (LPS) = assay: Binding affinity to LPS (unknown origin) assessed as reduction in bacterial mortality at 2 times MIC preincubated with LPS for 1 hr followed by bacteria addition and measured after 18 hrs by microplate reader analysis; type: subcellular; conditions: time 19.0 hrs
Cell membrane [9] = assay: Induction of outer membrane permeabilization in Escherichia coli assessed as increase in fluorescence intensity at 0.5 to 4 times MIC measured within 1 min by NPN dye based assay
Cell membrane [10] = assay: Induction of outer membrane permeabilization in Escherichia coli assessed as increase in fluorescence intensity at 0.5 to 4 times MIC measured for 12 mins by NPN dye based assay
Cell membrane [11] = assay: Induction of inner membrane permeabilization in Escherichia coli ML-35 ATCC 43837 at 0.5 to 4 times MIC by ONPG reagent based microplate reader analysis; conditions: time 0-135 min, TDE = time-dependent effect
Cell membrane [12] = assay: Induction of cytoplasmic membrane depolarization in Staphylococcus aureus assessed as increase in fluorescence intensity at >1 times MIC measured within 1 min by DISC3-5 dye based fluorescence analysis
Cell membrane [13] = assay: Induction of cell membrane damage in Escherichia coli assessed as PI uptake at 2 times MIC measured after 0.5 hrs by PI dye based flow cytometry analysis (reference value: 18.1%); type: cell membranes
Cell membrane [14] = assay: Induction of cell membrane damage in Staphylococcus aureus assessed as PI uptake at 2 times MIC measured after 0.5 hrs by PI dye based flow cytometry analysis (reference value: 24.2%); type: cell membranes
Cell membrane [15] = assay: Induction of cell membrane damage in Escherichia coli assessed as increase in PI uptake at 2 times MIC measured after 2 hrs by PI dye based flow cytometry analysis; type: cell membranes
Cell membrane [16] = assay: Induction of cell membrane damage in Staphylococcus aureus assessed as increase in PI uptake at 2 times MIC measured after 2 hrs by PI dye based flow cytometry analysis; type: cell membranes
Cell membrane [17] = assay: Disruption of cell membrane morphology in Escherichia coli assessed as partial creasing in bacterial membrane at 2 times MIC measured after 0.5 to 2 hrs by SEM analysis; type: cell membranes; conditions: time 0.5-2 hrs
Cell membrane [18] = assay: Disruption of cell membrane morphology in Escherichia coli assessed as release of cellular contents at 2 times MIC measured after 0.5 to 2 hrs by SEM analysis; type: cell membranes; conditions: time 0.5-2 hrs
Cell membrane [19] = assay: Disruption of cell membrane morphology in Escherichia coli assessed as loss of intact cell morphology at 2 times MIC measured after 0.5 to 2 hrs by SEM analysis; type: cell membranes; conditions: time 0.5-2 hrs
Cell membrane [20] = assay: Disruption of cell membrane morphology in Staphylococcus aureus assessed as breakage of cell membrane at 2 times MIC measured after 0.5 to 2 hrs by SEM analysis; type: cell membranes; conditions: time 0.5-2 hrs
Cell membrane [21] = assay: Disruption of cell membrane morphology in Staphylococcus aureus assessed as loss of intact cell morphology at 2 times MIC measured after 0.5 to 2 hrs by SEM analysis; type: cell membranes; conditions: time 0.5-2 hrs
Escherichia coli [22] = assay: Drug resistance, ratio of MIC for Escherichia coli after 20 passages to MIC for Escherichia coli after initial exposure; type: functional
Staphylococcus aureus [23] = assay: Drug resistance, ratio of MIC for Staphylococcus aureus after 20 passages to MIC for Staphylococcus aureus after initial exposure; type: functional
Escherichia coli [24] = assay: Resistant development in Escherichia coli assessed as increase in MIC at sub-MIC in presence of gentamicin measured after 20 passages; type: functional, organism-based
Staphylococcus aureus [25] = assay: Resistant development in Staphylococcus aureus assessed as increase in MIC at sub-MIC in presence of gentamicin measured after 20 passages; type: functional, organism-based
Staphylococcus aureus [26] = assay: Synergistic antibacterial activity against Staphylococcus aureus ATCC 25923 assessed as fractional inhibitory concentration index at 0.25 to 4 times MIC incubated for 20 hrs in presence of polymyxin B by checkerboard assay; type: functional
Staphylococcus aureus [27] = assay: Synergistic antibacterial activity against rifampicin resistant Staphylococcus aureus ATCC 25923 assessed as fractional inhibitory concentration index at 0.25 to 4 times MIC incubated for 20 hrs in presence of rifampicin by checkerboard assay; type: functional
[28] = Acute toxicity in male BALB/c mouse assessed as torpid movement at 80 to 130 mg/kg, ip administered as single dose and measured after 3 days; type: organism-based; conditions: in vivo, 72 h, dose 80-130 mg/kg, time 3 day
[29] = Acute toxicity in male BALB/c mouse assessed as lusterless fur at 80 to 130 mg/kg, ip administered as single dose and measured after 3 days; type: organism-based; conditions: in vivo, 72 h, dose 80-130 mg/kg, time 3 day
[30] = Acute toxicity in male BALB/c mouse assessed as animal death at 80 mg/kg, ip administered as single dose and measured after 3 days; type: organism-based; conditions: in vivo, 72 h, time 3 day
Staphylococcus aureus [31] = assay: Antibacterial activity against Staphylococcus aureus ATCC 25923 assessed as inhibition of bacterial growth incubated for 20 hrs in presence of NaCl by broth microdilution method (reference value: 16 microM); type: functional
Staphylococcus aureus [32] = assay: Antibacterial activity against Staphylococcus aureus ATCC 25923 assessed as inhibition of bacterial growth incubated for 20 hrs in presence of FeCl3 by broth microdilution method (reference value: 16 microM); type: functional
Staphylococcus aureus [33] = assay: Antibacterial activity against Staphylococcus aureus ATCC 25923 assessed as inhibition of bacterial growth incubated for 20 hrs in presence of ZnCl2 by broth microdilution method (reference value: 16 microM); type: functional
Escherichia coli [34] = assay: […] activity against Escherichia coli ATCC 25922 infected in ip dosed male BALB/c pulmonary infection model assessed as reduction in bacterial colonies administered at 3 and 12 hrs post infection and measured 24 hrs post infection; type: functional, organism-based; conditions: dose 5-10 mg/kg, time 12-21 hrs

Compound	MHC10 (Erythrocyte) [µM]	selectivity ratio [1]	selectivity ratio [2]	selectivity ratio [3]	half-life at 10000 µM [4] [h]	Activity (Staphylococcus aureus [5]) [%]	Activity (Escherichia coli [6])	Activity (Escherichia coli [7])	Activity (Staphylococcus aureus [8])	Activity (Lipopolysaccharide (LPS))	Activity (Cell membrane [9])	Activity (Cell membrane [10])	Activity (Cell membrane [11])	Activity (Cell membrane [12])	Activity (Cell membrane [13]) [%]	Activity (Cell membrane [14]) [%]	Activity (Cell membrane [15])	Activity (Cell membrane [16])	Activity (Cell membrane [17])	Activity (Cell membrane [18])	other results
N=C(N)NCCC[C@H](NC(=O)[C@H](CCCNC(=N)N)NC(=O)[C@H](CCCNC(=N)N)NC(=O)[C@@H](N)CCCNC(=N)N)C(=O)N[C@@H](CCCCN)C(=O)N[C@@H](Cc1c[nH]c2ccccc12)C(=O)N[C@@H](Cc1c[nH]c2ccccc12)C(=O)N[C@@H](Cc1c[nH]c2ccccc12)C(=O)N[C@@H](Cc1c[nH]c2ccccc12)C(N)=O	> 256	0.5	0.25	0.5	4.31	100	Active	Dose-Dependent Effect	Dose-Dependent Effect	Active	Active	Dose-Dependent Effect	Tde	Active	> 80	> 90	inactive	inactive	Active	Active	Activity (Cell membrane [19]): Active; Activity (Cell membrane [20]): Active; Activity (Cell membrane [21]): Active; Ratio (Escherichia coli [22]): <=2; Ratio (Staphylococcus aureus [23]): <=2; Activity (Escherichia coli [24]): inactive; Activity (Staphylococcus aureus [25]): inactive; fractional inhibitory concentration index (FICI) (Staphylococcus aureus [26]): 0.375; fractional inhibitory concentration index (FICI) (Staphylococcus aureus [27]): 0.5; Activity [28]: Toxic; Activity [29]: Toxic; Activity [30]: Non-Toxic
N=C(N)NCCC[C@H](NC(=O)[C@@H](N)CCCNC(=N)N)C(=O)NCCCC[C@H](NC(=O)[C@H](CCCNC(=N)N)NC(=O)[C@@H](N)CCCNC(=N)N)C(=O)N[C@@H](Cc1c[nH]c2ccccc12)C(=O)N[C@@H](Cc1c[nH]c2ccccc12)C(=O)N[C@@H](Cc1c[nH]c2ccccc12)C(=O)N[C@@H](Cc1c[nH]c2ccccc12)C(N)=O (H-RRK([Arg-Arg])WWWW-NH2)	> 256	1	0.5	1	7.38	100	Active	Dose-Dependent Effect	Dose-Dependent Effect	Active	Active	Dose-Dependent Effect	Tde	Active	> 80	> 90	inactive	inactive	Active	Active	MIC (Staphylococcus aureus [31]): 16 µM; MIC (Staphylococcus aureus [32]): 8 µM; MIC (Staphylococcus aureus [33]): 16 µM; Activity (Cell membrane [19]): Active; Activity (Cell membrane [20]): Active; Activity (Cell membrane [21]): Active; Ratio (Escherichia coli [22]): <=2; Ratio (Staphylococcus aureus [23]): <=2; Activity (Escherichia coli [24]): inactive; Activity (Staphylococcus aureus [25]): inactive; fractional inhibitory concentration index (FICI) (Staphylococcus aureus [26]): 0.313; Activity [28]: Toxic; Activity [29]: Toxic; Activity [30]: Non-Toxic; Activity (Escherichia coli [34]): Dose-Dependent Effect
POLYMYXIN B																					MIC (Staphylococcus aureus [31]): 64 µM; MIC (Staphylococcus aureus [32]): 16 µM; MIC (Staphylococcus aureus [33]): 16 µM; fractional inhibitory concentration index (FICI) (Staphylococcus aureus [27]): 0.5; Activity (Escherichia coli [34]): Dose-Dependent Effect
